Laboratory results as given in the NIST ThermoML archive (doi:10.1021/je900164a).

Assay: xn = mol fraction of the nth substance listed
Details: 101 kPa, Liquid, Vibrating tube method

CCCC[N+](CCCC)(CCCC)CCCC.[Br-] [tetrabutylammonium bromide] + O
Details | mass density [kg/m3]
276.15 K, x1 = 0.0009 | 1001.35
276.15 K, x1 = 0.0018 | 1002.75
276.15 K, x1 = 0.00359 | 1005.6
276.15 K, x1 = 0.00715 | 1011.37
276.15 K, x1 = 0.01069 | 1017.09
276.15 K, x1 = 0.01421 | 1022.49
276.15 K, x1 = 0.0177 | 1027.72
276.15 K, x1 = 0.02202 | 1033.53
276.15 K, x1 = 0.02631 | 1038.46
276.15 K, x1 = 0.03056 | 1042.53
277.15 K, x1 = 0.0009 | 1001.35
277.15 K, x1 = 0.0018 | 1002.73
277.15 K, x1 = 0.00359 | 1005.52
277.15 K, x1 = 0.00715 | 1011.23
277.15 K, x1 = 0.01069 | 1016.88
277.15 K, x1 = 0.01421 | 1022.16
277.15 K, x1 = 0.0177 | 1027.3
277.15 K, x1 = 0.02202 | 1033.01
277.15 K, x1 = 0.02631 | 1037.94
277.15 K, x1 = 0.03056 | 1040.98
277.15 K, x1 = 0.03478 | 1045.39
277.15 K, x1 = 0.0431 | 1050.63
277.15 K, x1 = 0.05128 | 1054.86
277.15 K, x1 = 0.07499 | 1060.81
278.15 K, x1 = 0.0009 | 1001.32
278.15 K, x1 = 0.0018 | 1002.69
278.15 K, x1 = 0.00359 | 1005.47
278.15 K, x1 = 0.00715 | 1011.09
278.15 K, x1 = 0.01069 | 1016.66
278.15 K, x1 = 0.01421 | 1021.91
278.15 K, x1 = 0.0177 | 1026.96
278.15 K, x1 = 0.02202 | 1032.57
278.15 K, x1 = 0.02631 | 1037.41
278.15 K, x1 = 0.03056 | 1040.41
278.15 K, x1 = 0.03478 | 1044.76
278.15 K, x1 = 0.0431 | 1049.93
278.15 K, x1 = 0.05128 | 1054.13
278.15 K, x1 = 0.07499 | 1060.07
279.18 K, x1 = 0.0009 | 1001.28
279.18 K, x1 = 0.0018 | 1002.65
279.18 K, x1 = 0.00359 | 1005.39
279.18 K, x1 = 0.00715 | 1010.96
279.18 K, x1 = 0.01069 | 1016.45
279.18 K, x1 = 0.01421 | 1021.63
279.18 K, x1 = 0.0177 | 1026.61
279.18 K, x1 = 0.02202 | 1032.11
279.18 K, x1 = 0.02631 | 1036.89
279.18 K, x1 = 0.03056 | 1039.82
279.18 K, x1 = 0.03478 | 1044.11
279.18 K, x1 = 0.0431 | 1049.24
279.18 K, x1 = 0.05128 | 1053.4
279.18 K, x1 = 0.07499 | 1059.33
280.15 K, x1 = 0.0009 | 1001.23
280.15 K, x1 = 0.0018 | 1002.58
280.15 K, x1 = 0.00359 | 1005.29
280.15 K, x1 = 0.00715 | 1010.78
280.15 K, x1 = 0.01069 | 1016.22
280.15 K, x1 = 0.01421 | 1021.32
280.15 K, x1 = 0.0177 | 1026.22
280.15 K, x1 = 0.02202 | 1031.62
280.15 K, x1 = 0.02631 | 1036.32
280.15 K, x1 = 0.03056 | 1039.11
280.15 K, x1 = 0.03478 | 1043.44
280.15 K, x1 = 0.0431 | 1048.51
280.15 K, x1 = 0.05128 | 1052.65
280.15 K, x1 = 0.07499 | 1058.55
281.15 K, x1 = 0.0009 | 1001.16
281.15 K, x1 = 0.0018 | 1002.49
281.15 K, x1 = 0.00359 | 1005.18
281.15 K, x1 = 0.00715 | 1010.61
281.15 K, x1 = 0.01069 | 1015.98
281.15 K, x1 = 0.01421 | 1020.99
281.15 K, x1 = 0.0177 | 1025.83
281.15 K, x1 = 0.02202 | 1031.18
281.15 K, x1 = 0.02631 | 1035.8
281.15 K, x1 = 0.03056 | 1038.63
281.15 K, x1 = 0.03478 | 1042.82
281.15 K, x1 = 0.0431 | 1048.23
281.15 K, x1 = 0.05128 | 1051.94
281.15 K, x1 = 0.07499 | 1057.83
282.15 K, x1 = 0.0009 | 1001.09
282.15 K, x1 = 0.0018 | 1002.4
282.15 K, x1 = 0.00359 | 1005.07
282.15 K, x1 = 0.00715 | 1010.44
282.15 K, x1 = 0.01069 | 1015.72
282.15 K, x1 = 0.01421 | 1020.68
282.15 K, x1 = 0.0177 | 1025.44
282.15 K, x1 = 0.02202 | 1030.69
282.15 K, x1 = 0.02631 | 1035.23
282.15 K, x1 = 0.03056 | 1038.05
282.15 K, x1 = 0.03478 | 1042.16
282.15 K, x1 = 0.0431 | 1047.12
282.15 K, x1 = 0.05128 | 1051.21
282.15 K, x1 = 0.07499 | 1057.05
283.15 K, x1 = 0.0009 | 1001
283.15 K, x1 = 0.0018 | 1002.3
283.15 K, x1 = 0.00359 | 1004.95
283.15 K, x1 = 0.00715 | 1010.26
283.15 K, x1 = 0.01069 | 1015.5
283.15 K, x1 = 0.01421 | 1020.38
283.15 K, x1 = 0.0177 | 1025.06
283.15 K, x1 = 0.02202 | 1030.21
283.15 K, x1 = 0.02631 | 1034.68
283.15 K, x1 = 0.03056 | 1037.44
283.15 K, x1 = 0.03478 | 1041.49
283.15 K, x1 = 0.0431 | 1046.41
283.15 K, x1 = 0.05128 | 1050.46
283.15 K, x1 = 0.07499 | 1056.3
288.15 K, x1 = 0.0009 | 1000.35
288.15 K, x1 = 0.0018 | 1001.6
288.15 K, x1 = 0.00359 | 1004.1
288.15 K, x1 = 0.00715 | 1009.15
288.15 K, x1 = 0.01069 | 1014.04
288.15 K, x1 = 0.01421 | 1018.72
288.15 K, x1 = 0.0177 | 1023.06
288.15 K, x1 = 0.02202 | 1027.79
288.15 K, x1 = 0.02631 | 1031.87
288.15 K, x1 = 0.03056 | 1035.33
288.15 K, x1 = 0.03478 | 1038.35
288.15 K, x1 = 0.0431 | 1042.93
288.15 K, x1 = 0.05128 | 1046.34
293.15 K, x1 = 0.0009 | 999.405
293.15 K, x1 = 0.0018 | 1000.6
293.15 K, x1 = 0.00359 | 1002.98
293.15 K, x1 = 0.00715 | 1007.76
293.15 K, x1 = 0.01069 | 1012.37
293.15 K, x1 = 0.01421 | 1016.75
293.15 K, x1 = 0.0177 | 1020.77
293.15 K, x1 = 0.02202 | 1025.18
293.15 K, x1 = 0.02631 | 1028.99
293.15 K, x1 = 0.03056 | 1032.22
293.15 K, x1 = 0.03478 | 1035.02
293.15 K, x1 = 0.0431 | 1039.41
293.15 K, x1 = 0.05128 | 1042.74
298.15 K, x1 = 0.0009 | 998.18
298.15 K, x1 = 0.0018 | 999.32
298.15 K, x1 = 0.00359 | 1001.59
298.15 K, x1 = 0.00715 | 1006.13
298.15 K, x1 = 0.01069 | 1010.49
298.15 K, x1 = 0.01421 | 1014.53
298.15 K, x1 = 0.0177 | 1018.3
298.15 K, x1 = 0.02202 | 1022.43
298.15 K, x1 = 0.02631 | 1026
298.15 K, x1 = 0.03056 | 1029.06
298.15 K, x1 = 0.03478 | 1031.68
298.15 K, x1 = 0.0431 | 1035.89
298.15 K, x1 = 0.05128 | 1039.06
303.15 K, x1 = 0.0009 | 996.74
303.15 K, x1 = 0.0018 | 997.82
303.15 K, x1 = 0.00359 | 999.99
303.15 K, x1 = 0.00715 | 1004.3
303.15 K, x1 = 0.01069 | 1008.43
303.15 K, x1 = 0.01421 | 1012.26
303.15 K, x1 = 0.0177 | 1015.77
303.15 K, x1 = 0.02202 | 1019.65
303.15 K, x1 = 0.02631 | 1022.97
303.15 K, x1 = 0.03056 | 1025.85
303.15 K, x1 = 0.03478 | 1028.34
303.15 K, x1 = 0.0431 | 1032.36
303.15 K, x1 = 0.05128 | 1035.44
308.15 K, x1 = 0.0009 | 995.085
308.15 K, x1 = 0.0018 | 996.14
308.15 K, x1 = 0.00359 | 998.22
308.15 K, x1 = 0.00715 | 1002.32
308.15 K, x1 = 0.01069 | 1006.21
308.15 K, x1 = 0.01421 | 1009.84
308.15 K, x1 = 0.0177 | 1013.13
308.15 K, x1 = 0.02202 | 1016.74
308.15 K, x1 = 0.02631 | 1019.88
308.15 K, x1 = 0.03056 | 1022.54
308.15 K, x1 = 0.03478 | 1024.97
308.15 K, x1 = 0.0431 | 1028.78
308.15 K, x1 = 0.05128 | 1031.82
